Experimental data published in US20250281406A1, “COMPOUNDS, COMPOSITIONS AND METHODS FOR DELIVERY OF BIOLOGICALLY ACTIVE AGENTS” (ROYAL MELBOURNE INSTITUTE OF TECHNOLOGY, priority 2022, published 2025).

What was measured:
[1] = Drug loading and encapsulation efficiency of SN-38 nanoparticles by HPLC; assay type: physicochemical
Description: The amount of drug loading (DL) and encapsulation efficiency (EE) were determined for each of the four formulations of Example 5 using an HPLC method.
The nanoparticles containing the drug was centrifuged at 1000×g for 25 min at 25° C. to remove any un-encapsulated drug agglomerates. The supernatant was collected and vortexed for 10 min at 2500 rpm for uniform distribution.
For the SN-38 drug content assay, a UV variable detector at a wavelength of 265 nm and an Agilent Zorbax SB-C18 column (4.6 mm×250 mm, five μm) were utilised. The mobile phase consisted of a 50:50 (v/v) mixture of 25 mM NaH2PO4 (pH=3.1) buffer and acetonitrile. The mobile phase pH was maintained at 3.8 to ensure the analyte, SN-38, was in the closed lactone ring form during the assay. The sample for HPLC was prepared by diluting the nanoparticles 100 times with HPLC solvents (10 μL of the formulation with 990 μL 50/50 mixture of buffer and acetonitrile). During the assay, an aliquot of 20 μL of the sample was injected in duplicate into the HPLC system at a flow rate of 1 ml/min. The SN-38 content in the formulation was quantitatively determined using a standard curve prepared as outlined in previously published journal articles (Zhang et al. 2004; Escoriaza et al. 2000).
The following equation was used calculate the encapsulation efficiency (EE %) […]

[2] = In vitro release of SN-38 by dynamic dialysis; assay type: physicochemical; settings: pure-drug suspension, no lipid nanocarriers, within 60-90 min
Description: In vitro release of SN-38 from the nanoparticles was evaluated using a dynamic dialysis method (Zambito, Y. International Journal of Pharmaceutics 2012, 434 (1), 28-34). The drug release rate was determined by placing the dispersion in a dialysis tube (Pur-A-Lyzer™ Maxi Dialysis tube molecular weight cut off 3500) and exhaustively dialysing.
After removing the free drug, the highest SN-38 loaded nanoparticles (1 mL formulation) were placed inside the dialysis tube. The dialysis tube was then immersed in a 1000 mL buffer maintained at 37±1.0° C. and stirred at 400 rpm. The analysis of the separation of free drug from drug-loaded formulations was carried out over a period of 420 min. Release experiments were performed in triplicate on three independently prepared SN-38 loaded formulations. For physiological pH, experiments were carried out by dialysing the formulations against 1000 mL of phosphate buffer (pH 7.0). Lower pH experiments were carried out by dialysing the formulations against 1000 mL of phosphate buffer adjusted to the required pH. The SN-38 that remained in the dialysis tube was quantitatively measured by the HPLC method. At predetermined time intervals (60 min, 120 min, 240 min and 420 min), 10 μL of the sample was withdrawn from the dialysis tube and diluted with 990 μL of the HPLC solvent. […]

[3] = cited from earlier work
[4] = Particle size and polydispersity index of lipid nanoparticles by dynamic light scattering; assay type: physicochemical; settings: mean ± SD n=3
Description: The average hydrodynamic diameter and polydispersity index (PDI) of lipid nanoparticles were measured by dynamic light scattering (DLS) using a Malvern Zetasizer Nano ZS (Malvern Instruments, UK). All measurements were performed at 25° C. (n=3) by loading the lipid formulations (10 μL) into clear 96-well half-area polystyrene plates and diluting with 190 μL milli-Q water (Zhai et al. 2015).

[5] = Mesophase (phase behaviour) of lipid nanoparticles by synchrotron SAXS; assay type: physicochemical
Description: Nanoparticle preparations (50 μL) were loaded into a transparent 96-well half-area polystyrene plate (Greiner Bio-One, Interpath Inc., VIC, Australia), and 50 μL of a suitable buffer solution (Citrate buffer) of specified pH was added to the plate. Phase behaviour of the nanoparticles was characterized at the SAXS/WAXS beamline of the Australian Synchrotron. The instrument used an X-ray wavelength of λ=1.128 Å (11.0 keV) with atypical flux of approximately […]. The sample to detector distance was chosen as 1.6 m which provided a q-range of 0.01-0.5 Å^−1 (scattering vector q=4π sin (θ/2)/λ, whereby θ is the scattering angle and λ is the wavelength). Sample scattering patterns were obtained at 25° C. and 37° C. following the procedure reported in the literature. The plate was placed in a holder perpendicular to the X-ray beam. The sample holder was moved by motors that were controlled by in-house ScatterBrain software for automatic SAXS screening. The sample temperature was controlled by a circulating water bath and kept at 25° C. or 37° C. Two-dimensional X-ray diffraction images were recorded on a Decris-Pilatus 1-M detector using ScatterBrain. The scattering images were integrated into one dimensional plots of intensity versus q for phase identification. The mesophase of the nanoparticles were assigned by matching the relative positions of the scattering peaks with known patterns for bicontinuous cubic, hexagonal, lamellar, and micellar cubic phase. The lattice parameter of the nanoparticles were calculated using the IDL-based software AXcess following the described method (Tran et al. 2018; Tran et al. 2016).
As detailed in Example 2 above, lipid nanoparticles described herein were prepared by doping the synthesised amino lipids into MO at 8 different compositions (RMO=0.05, 0.1, 0.15, 0.2, 0.25, 0.3, 0.4, 0.5) and dispersed with Pluronic F-127. Mesophase structure of the drug-free formulations was determined by SAXS over ten different pH values (a pH range of 2.5 to 10). FIG. 3 represents the SAXS partial phase diagrams of these nanoparticles at 25° C. The shape of an amphiphile can be characterised by the critical packing parameter (CPP). CPP=V/al, in which V is the effective volume of the amphiphile's hydrophobic tail, a is the effective cross-sectional area of the headgroup, and l is the effective length of the hydrocarbon chain. Lamellar phases (Lα) are typically observed with a zero interfacial curvature. For CPP values greater than 1, inverse phases, such as Q2 and H2 phases, are formed with increasing negative interfacial curvatures. The Q2 phase consists of lipid bilayers arranged in periodic 3D structures by twisting the bilayers into the shape of infinite periodic minimal surfaces. The H2 is a closed, extended micellar columnar structure, where there is no direct contact between the water inside and outside the H2 phase.

[6] = MO nanoparticles with amino lipid at RMO 0.05, Pluronic F-127, 25° C.
[7] = MO nanoparticles with amino lipid at RMO 0.1, Pluronic F-127, 25° C.
[8] = MO nanoparticles with amino lipid at RMO 0.15, Pluronic F-127, 25° C.
[9] = MO nanoparticles with amino lipid at RMO 0.2, Pluronic F-127, 25° C.
[10] = MO nanoparticles with amino lipid at RMO 0.25, Pluronic F-127, 25° C.
[11] = MO nanoparticles with amino lipid at RMO 0.3, Pluronic F-127, 25° C.
[12] = MO nanoparticles with amino lipid at RMO 0.4, Pluronic F-127, 25° C.
[13] = MO nanoparticles with amino lipid at RMO 0.5, Pluronic F-127, 25° C.

Structure (SMILES): CCc1c2c(nc3ccc(O)cc13)-c1cc3c(c(=O)n1C2)COC(=O)[C@]3(O)CC [SN-38]
- Loading relative to solubility of SN-38 in water ([1]; 844 μg/ml loading): ~100 times
- Loading of SN-38 ([1]; highest loading achieved in MO/Lipid-10 nanoparticles): 844 µg/mL
- SN-38 released through dialysis membrane [2]: More than 90%
- Solubility in water [3]: 7 to 11 µg/mL

Structure (SMILES): CCCCCCCC/C=C\CCCCCCCC(=O)NCc1ccccn1 [Lipid-11]
- PDI of the formulations [4, 6]: 0.23 ± 0.04
- Particle Size in nm [4, 6]: 284 ± 2 nm
- PDI of the formulations [4, 7]: 0.18 ± 0.03
- Particle Size in nm [4, 7]: 255 ± 4 nm
- PDI of the formulations [4, 8]: 0.20 ± 0.03
- Particle Size in nm [4, 8]: 300 ± 7 nm
- PDI of the formulations [4, 9]: 0.23 ± 0.02
- Particle Size in nm [4, 9]: 267 ± 4 nm
- PDI of the formulations [4, 10]: 0.28 ± 0.02
- Particle Size in nm [4, 10]: 313 ± 4 nm
- PDI of the formulations [4, 11]: 0.20 ± 0.02
- Particle Size in nm [4, 11]: 290 ± 4 nm
- PDI of the formulations [4, 12]: 0.10 ± 0.02
- Particle Size in nm [4, 12]: 272 ± 5 nm
- PDI of the formulations [4, 13]: 0.21 ± 0.03
- Particle Size in nm [4, 13]: 300 ± 4 nm
- Phase observed ([5]; RMO=0.4, neutral pH, MO nanoparticles): L2 phase
- pH of transition from L2 to Q2 ([5]; RMO=0.4-0.5): 3.0 pH

Structure (SMILES): CCCCCCCC/C=C\CCCCCCCC(=O)NCCN1CCCCC1 [Lipid-13, N-(2-(piperidin-1-yl)ethyl)oleamide]
- PDI of the formulations [4, 6]: 0.25 ± 0.03
- Particle Size in nm [4, 6]: 180 ± 3 nm
- PDI of the formulations [4, 7]: 0.20 ± 0.04
- Particle Size in nm [4, 7]: 176 ± 4 nm
- PDI of the formulations [4, 8]: 0.23 ± 0.04
- Particle Size in nm [4, 8]: 168 ± 4 nm
- PDI of the formulations [4, 9]: 0.22 ± 0.05
- Particle Size in nm [4, 9]: 185 ± 6 nm
- PDI of the formulations [4, 10]: 0.19 ± 0.03
- Particle Size in nm [4, 10]: 180 ± 2 nm
- PDI of the formulations [4, 11]: 0.23 ± 0.03
- Particle Size in nm [4, 11]: 194 ± 5 nm
- PDI of the formulations [4, 12]: 0.15 ± 0.05
- Particle Size in nm [4, 12]: 200 ± 5 nm
- PDI of the formulations [4, 13]: 0.18 ± 0.05
- Particle Size in nm [4, 13]: 209 ± 5 nm
- pH difference within which the change from H2 to Q2 is observed ([5]; RMO=0.2-0.3): ≤ 0.5 pH unit
- pH of H2→Q2 transition ([5]; RMO=0.2-0.3): 7.0 pH

Structure (SMILES): CCCCCCCC/C=C\CCCCCCCC(=O)NCCN1CCOCC1 [Lipid-12]
- PDI of the formulations [4, 6]: 0.23 ± 0.03
- Particle Size in nm [4, 6]: 214 ± 4 nm
- PDI of the formulations [4, 7]: 0.20 ± 0.05
- Particle Size in nm [4, 7]: 218 ± 3 nm
- PDI of the formulations [4, 8]: 0.20 ± 0.05
- Particle Size in nm [4, 8]: 239 ± 3 nm
- PDI of the formulations [4, 9]: 0.30 ± 0.03
- Particle Size in nm [4, 9]: 250 ± 2 nm
- PDI of the formulations [4, 10]: 0.25 ± 0.03
- Particle Size in nm [4, 10]: 191 ± 8 nm
- PDI of the formulations [4, 11]: 0.25 ± 0.05
- Particle Size in nm [4, 11]: 206 ± 11 nm
- PDI of the formulations [4, 12]: 0.40 ± 0.04
- Particle Size in nm [4, 12]: 205 ± 6 nm
- PDI of the formulations [4, 13]: 0.38 ± 0.03
- Particle Size in nm [4, 13]: 137 ± 6 nm

Structure (SMILES): CCCCCCCC/C=C\CCCCCCCC(=O)NCc1ccncc1 [Lipid-10, N-(pyridine-4-ylmethyl)oleamide]
- PDI of the formulations [4, 6]: 0.16 ± 0.03
- Particle Size in nm [4, 6]: 217 ± 6 nm
- PDI of the formulations [4, 7]: 0.21 ± 0.02
- Particle Size in nm [4, 7]: 224 ± 3 nm
- PDI of the formulations [4, 8]: 0.2 ± 0.05
- Particle Size in nm [4, 8]: 259 ± 8 nm
- PDI of the formulations [4, 9]: 0.19 ± 0.03
- Particle Size in nm [4, 9]: 271 ± 4 nm
- PDI of the formulations [4, 10]: 0.39 ± 0.03
- Particle Size in nm [4, 10]: 250 ± 3 nm
- PDI of the formulations [4, 11]: 0.22 ± 0.02
- Particle Size in nm [4, 11]: 246 ± 4 nm
- PDI of the formulations [4, 12]: 0.24 ± 0.03
- Particle Size in nm [4, 12]: 244 ± 6 nm
- PDI of the formulations [4, 13]: 0.25 ± 0.04
- Particle Size in nm [4, 13]: 265 ± 4 nm
- Shift of H2 to Q2 transition at 37° C. compared to 25° C. (higher) ([5]; RMO 0.4, pH 4.0 to 7.5): 0.5 pH unit
- pH at which Q2 is reached in the transition from H2 at pH 7.5 ([5]; RMO=0.4-0.5, 25° C.): 5.5 pH
- pH resulting in liposome formation ([5]; RMO=0.4-0.5, further decrease in pH): 4.0 pH
- RMO at which the transition from Q2 to H2 occurred ([5]; pH 7, MO nanoparticles): 0.4
